Assay results from US20260053861A1, “CELL COMPOSITIONS AND METHODS OF USING THE SAME” (THE REGENTS OF THE UNIVERSITY OF CALIFORNIA, priority 2022, published 2026).
Where a name gives a salt, the structure may show the parent alone. Read-outs that look alike come from different tables or passages of the source.

Tested on: hPSC-SCs
[1] = HTS viability of hPSC-SCs in the presence of 30 mM glucose, Prestwick library, Table S4

Compound: CSc1ccc2c(c1)N(CCC1CCCCN1C)c1ccccc1S2 (stereo not drawn) [Thioridazine hydrochloride]
- z.score.t [1]: −1.898

Compound: CCN(CC)CCOC(=O)c1ccc(N)cc1 [Procaine hydrochloride]
- z.score.t [1]: 0.5587

Compound: C#CCN(C)CCCOc1ccc(Cl)cc1Cl [Clorgyline hydrochloride]
- z.score.t [1]: 0.1556

Compound: CC(=O)OCC1=C(C(=O)O)N2C(=O)[C@@H](N)[C@H]2SC1 [Cephalosporanic acid, 7-amino]
- z.score.t: −0.7049

Compound: Cotinine (−)
- z.score.t: −0.139

Compound: COc1ccc2[nH]c([S+]([O-])Cc3ncc(C)c(OC)c3C)nc2c1 (stereo not drawn) [Omeprazole]
- z.score.t [1]: 0.1344

Compound: CC(C)(C)C(=O)OCOC(=O)[C@@H]1N2C(=O)[C@@H](/N=C/N3CCCCCC3)[C@H]2SC1(C)C [Pivmecillinam hydrochloride]
- z.score.t [1]: 0.0827

Compound: CC(C)/N=c1\cc2n(-c3ccc(Cl)cc3)c3ccccc3nc-2cc1Nc1ccc(Cl)cc1 [Clofazimine]
- z.score.t [1]: −1.765

Compound: CCN(CC)CCNC(=O)c1ccc(N)cc1 [Procainamide hydrochloride]
- z.score.t [1]: −0.2904

Compound: c1ccc2c(CC3=NCCN3)cccc2c1 [Naphazoline hydrochloride]
- z.score.t [1]: 0.7665

Compound: CN1CCCN=C1/C=C/c1cccc(O)c1.O=C(O)c1cc2ccccc2c(Cc2c(O)c(C(=O)O)cc3ccccc23)c1O [Oxantel pamoate]
- z.score.t [1]: −0.3936

Compound: CC1(C)O[C@@H]2C[C@H]3[C@@H]4CCC5=CC(=O)CC[C@]5(C)[C@@]4(F)[C@@H](O)C[C@]3(C)[C@]2(C(=O)CCl)O1 [Halcinonide]
- z.score.t [1]: 1.238

Compound: C[C@H]1C[C@H]2[C@@H]3CCC4=CC(=O)C=C[C@]4(C)[C@@]3(F)[C@@H](O)C[C@]2(C)[C@@]1(O)C(=O)CO [Betamethasone]
- z.score.t [1]: 0.8711

Compound: C(=C\c1ccccc1)/CN1CCN(C(c2ccccc2)c2ccccc2)CC1 [Cinnarizine]
- z.score.t [1]: −0.8513

Compound: Dihydroergotoxine mesylate
- z.score.t [1]: 0.9377

Compound: NCCCCCC(=O)O [Aminocaproic acid]
- z.score.t: −0.4749

Compound: C[C@]12CC[C@@H](O)C[C@H]1CC[C@@H]1[C@@H]2CC[C@]2(C)C(=O)CC[C@@H]12 [3-alpha-Hydroxy-5-beta-androstan-17-one]
- z.score.t: −0.1014

Compound: CCc1nc(N)nc(N)c1-c1ccc(Cl)cc1 [Pyrimethamine]
- z.score.t [1]: 0.5856

Compound: O=C(O)CCCC[C@@H]1SC[C@@H]2NC(=O)N[C@@H]21 [Biotin]
- z.score.t [1]: 0.2189

Compound: C[N+]1(C)[C@@H]2CC[C@H]1C[C@@H](OC(=O)C(CO)c1ccccc1)C2 (stereo partly drawn) [Methylatropine nitrate]
- z.score.t [1]: 1.238

Compound: CCN(CCCCOC(=O)c1ccc(OC)c(OC)c1)C(C)Cc1ccc(OC)cc1 (stereo not drawn) [Mebeverine hydrochloride]
- z.score.t [1]: −0.3301

Compound: COc1c(C)c2c(c(O)c1C/C=C(\C)CCC(=O)O)C(=O)OC2 [Mycophenolic acid]
- z.score.t [1]: −0.7775

Compound: O=C(O)c1ccccc1Nc1cccc(C(F)(F)F)c1 [Flufenamic acid]
- z.score.t [1]: −1.003

Compound: CCC(=O)OCC(=O)[C@@]1(OC(=O)CC)[C@H](C)C[C@H]2[C@H]3[C@H]([C@@H](O)C[C@@]21C)[C@@]1(C)C=CC(=O)C=C1C[C@H]3Cl [Alclometasone dipropionate]
- z.score.t: 1.456

Compound: CC(C)(Oc1ccc(C2CC2(Cl)Cl)cc1)C(=O)O (stereo not drawn) [Ciprofibrate]
- z.score.t [1]: −0.2611

Compound: CC1CS(=O)(=O)CCN1/N=C/c1ccc([N+](=O)[O-])o1 (stereo not drawn) [Nifurtimox]
- z.score.t [1]: 1.522

Compound: Cc1c2ccncc2c(C)c2c1[nH]c1ccccc12 [Ellipticine]
- z.score.t [1]: −1.949

Compound: CCN1C[C@]2(C)CC[C@H](O)[C@]34C1[C@@H](C[C@H]23)[C@@]1(O)C[C@H](OC)[C@H]2C[C@@H]4[C@@H]1[C@H]2O [Karakoline]
- z.score.t: 1.53

Compound: Deptropine citrate
- z.score.t: −0.247

Compound: O=C(NCC1CCCCN1)c1cc(OCC(F)(F)F)ccc1OCC(F)(F)F (stereo not drawn) [Flecainide acetate]
- z.score.t [1]: 0.4105

Compound: CCN(CC)CCNC(=O)c1cc(Cl)c(N)cc1OC [Metoclopramide monohydrochloride]
- z.score.t [1]: 1.024

Compound: NC(=O)c1ncn([C@@H]2O[C@H](CO)[C@@H](O)[C@H]2O)n1 [Ribavirin]
- z.score.t [1]: 2.03

Compound: CCCN(CCC)S(=O)(=O)c1ccc(C(=O)O)cc1 [Probenecid]
- z.score.t [1]: −0.3319

Compound: Clc1ccc(C(OCCN2CCCCC2)c2ccccc2)cc1 (stereo not drawn) [Cloperastine hydrochloride]
- z.score.t [1]: −1.185

Compound: Cn1c([N+](=O)[O-])cnc1COC(N)=O [Ronidazole]
- z.score.t [1]: −0.5875

Compound: CCN[C@H]1CN(CCCOC)S(=O)(=O)c2sc(S(N)(=O)=O)cc21 [Brinzolamide]
- z.score.t [1]: 0.7491

Compound: CCN1C[C@]2(COC)[C@H](O)C[C@H](OC)[C@@]34[C@@H]5C[C@@]6(O)[C@H](OC(=O)c7ccccc7)[C@@H]5[C@@](OC(C)=O)([C@@H]([C@H](OC)[C@H]23)[C@@H]14)[C@@H](O)[C@@H]6OC [Aconitine]
- z.score.t: −0.2486

Compound: CCC1(c2ccccc2)C(=O)NCNC1=O [Primidone]
- z.score.t [1]: 0.2582

Compound: COc1cc(NS(=O)(=O)c2ccc(N)cc2)ncn1 [Sulfamonomethoxine]
- z.score.t [1]: 0.453

Compound: CN(C)c1ccc(O)c2c1C[C@H]1C[C@H]3[C@H](N(C)C)C(O)=C(C(N)=O)C(=O)[C@@]3(O)C(O)=C1C2=O [Minocycline hydrochloride]
- z.score.t [1]: −1.319

Compound: NC[C@@H]1O[C@H](O[C@H]2[C@@H](O)[C@H](O[C@@H]3[C@@H](O)[C@H](N)C[C@H](N)[C@H]3O[C@H]3O[C@H](CO)[C@@H](O)[C@H](O)[C@H]3N)O[C@@H]2CO)[C@H](N)[C@@H](O)[C@@H]1O [Paromomycin sulfate]
- z.score.t [1]: −1.074

Compound: C[C@@H]1O[C@@H](O[C@H]2[C@H](Oc3cc(O)c4c(c3)O[C@H](c3ccc(O)cc3)CC4=O)O[C@H](CO)[C@@H](O)[C@@H]2O)[C@H](O)[C@H](O)[C@H]1O [Naringin hydrate]
- z.score.t [1]: 1.659

Compound: CC[C@]12CCCN3CCc4c(n(c5ccccc45)[C@@](O)(C(=O)OC)C1)[C@@H]32 [Vincamine]
- z.score.t [1]: 0.08508

Compound: C[C@H]1NC(=O)NC1=O [Methylhydantoin-5-(D)]
- z.score.t: −0.9395

Compound: Nc1nc2ncc(CNc3ccc(C(=O)N[C@@H](CCC(=O)O)C(=O)O)cc3)nc2c(=O)[nH]1 [Folic acid]
- z.score.t [1]: 0.7312

Compound: O=c1ccc2cc(O)c(O)cc2o1 [Esculetin]
- z.score.t [1]: −0.7376

Compound: Cc1ccccc1N1C(=O)c2cc(S(N)(=O)=O)c(Cl)cc2NC1C (stereo not drawn) [Metolazone]
- z.score.t [1]: 0.3637

Compound: Spiramycin
- z.score.t [1]: 0.7158

Compound: Tyloxapol
- z.score.t: −1.008

Compound: Cc1nccn1CC1CCc2c(c3ccccc3n2C)C1=O (stereo not drawn) [Ondansetron Hydrochloride]
- z.score.t [1]: −0.3173

Compound: CC[N+]1(C)[C@@H]2CC[C@H]1CC(OC(=O)[C@@H]1CC[C@@](C(=O)OC3C[C@H]4CC[C@@H](C3)[N+]4(C)CC)(c3ccccc3)c3ccccc31)C2.[Cl-].[Cl-] (stereo partly drawn) [beta-Belladonnine dichloroethylate]
- z.score.t: 1.872

Compound: Pizotifen malate
- z.score.t [1]: −0.2329

Compound: CN1C(=O)CCS(=O)(=O)C1c1ccc(Cl)cc1 (stereo not drawn) [Chlormezanone]
- z.score.t: −0.5532

Compound: COc1ccc2c(c1)[C@]13CCCC[C@@H]1[C@H](C2)N(C)CC3
- z.score.t: 1.28
